Results from ChEMBL document CHEMBL1150202, “Modified Taxols, 6. Preparation of Water-Soluble Prodrugs of Taxol” (J Nat Prod, 1991).
≈ marks a conversion by molar mass, not a printed value.

How the values were obtained:
[1] = test system: A549; test: Cytotoxicity against human A549 cells; assay type: functional, cell-based
[2] = Cytotoxicity against human A549/VP cells; assay type: functional, cell-based
[3] = test system: B16; test: Cytotoxicity against mouse B16 cells grown in PRIM medium; assay type: functional, cell-based
[4] = test system: HCT-116; test: Cytotoxicity against human HCT116 cells; assay type: functional, cell-based
[5] = Cytotoxicity against human HCT/VP35 cells; assay type: functional, cell-based
[6] = test system: P388; test: In vivo cytotoxicity against mouse P388 cells at 16 mg/kg, ip, scheduled Q01D for 5 days relative to control; assay type: functional
[7] = test system: P388; test: In vivo cytotoxicity against mouse P388 cells at 8 mg/kg, ip, scheduled Q01D for 5 days relative to control; assay type: functional
[8] = test system: P388; test: In vivo cytotoxicity against mouse P388 cells at 4 mg/kg, ip, scheduled Q01D for 5 days relative to control; assay type: functional
[9] = test system: P388; test: In vivo cytotoxicity against mouse P388 cells at 64 mg/kg, ip, scheduled Q01D for 5 days relative to control; assay type: functional
[10] = test system: P388; test: In vivo cytotoxicity against mouse P388 cells at 32 mg/kg, ip, scheduled Q01D for 5 days relative to control; assay type: functional
[11] = test system: P388; test: In vivo cytotoxicity against mouse P388 cells at 48 mg/kg, ip, scheduled Q01D for 5 days relative to control; assay type: functional
[12] = test system: P388; test: In vivo cytotoxicity against mouse P388 cells at 24 mg/kg, ip, scheduled Q01D for 5 days relative to control; assay type: functional
[13] = test system: P388; test: In vivo cytotoxicity against mouse P388 cells at 12 mg/kg, ip, scheduled Q01D for 5 days relative to control; assay type: functional
[14] = test system: P388; test: In vivo cytotoxicity against mouse P388 cells at 6 mg/kg, ip, scheduled Q01D for 5 days relative to control; assay type: functional
[15] = test system: P388; test: In vivo cytotoxicity against mouse P388 cells at 3 mg/kg, ip, scheduled Q01D for 5 days relative to control; assay type: functional
[16] = test system: P388; test: In vivo cytotoxicity against mouse P388 cells at 40 mg/kg, ip, scheduled Q01D for 5 days relative to control; assay type: functional
[17] = test system: P388; test: In vivo cytotoxicity against mouse P388 cells at 20 mg/kg, ip, scheduled Q01D for 5 days relative to control; assay type: functional
[18] = test system: P388; test: In vivo cytotoxicity against mouse P388 cells at 10 mg/kg, ip, scheduled Q01D for 5 days relative to control; assay type: functional
[19] = test system: P388; test: In vivo cytotoxicity against mouse P388 cells at 5 mg/kg, ip, scheduled Q01D for 5 days relative to control; assay type: functional
[20] = test system: P388; test: In vivo cytotoxicity against mouse P388 cells at 2.5 mg/kg, ip, scheduled Q01D for 5 days relative to control; assay type: functional

Structure (SMILES)	IC50 [1]	IC50 [2]	IC50 [3]	IC50 [4]	IC50 [5]	T/C [6]	T/C [7]	T/C [8]	T/C [9]	T/C [10]	T/C [11]	T/C [12]	T/C [13]	T/C [14]	T/C [15]	T/C [16]	T/C [17]	T/C [18]	T/C [19]	T/C [20]
CC(=O)O[C@H]1C(=O)[C@@]2(C)[C@H]([C@H](OC(=O)c3ccccc3)[C@]3(O)C[C@H](OC(=O)[C@H](OC(=O)CCC(=O)NCCS(=O)(=O)[O-])[C@@H](NC(=O)c4ccccc4)c4ccccc4)C(C)=C1C3(C)C)[C@]1(OC(C)=O)CO[C@@H]1C[C@@H]2O.[Na+]	0.09 µg/mL	< 0.02 µg/mL	< 0.02 µg/mL	< 0.02 µg/mL	0.03 µg/mL	127%	114%	109%	132%	136%										
CC(=O)O[C@H]1C(=O)[C@@]2(C)[C@H]([C@H](OC(=O)c3ccccc3)[C@]3(O)C[C@H](OC(=O)[C@H](OC(=O)CCC(=O)NCCCS(=O)(=O)[O-])[C@@H](NC(=O)c4ccccc4)c4ccccc4)C(C)=C1C3(C)C)[C@]1(OC(C)=O)CO[C@@H]1C[C@@H]2O.[Na+]	0.19 µg/mL	0.11 µg/mL	< 0.02 µg/mL	< 0.02 µg/mL	0.04 µg/mL						127%	123%	118%	114%	109%					
CC(=O)O[C@H]1C(=O)[C@@]2(C)[C@H]([C@H](OC(=O)c3ccccc3)[C@]3(O)C[C@H](OC(=O)[C@H](O)[C@@H](NC(=O)c4ccccc4)c4ccccc4)C(C)=C1C3(C)C)[C@]1(OC(C)=O)CO[C@@H]1C[C@@H]2O [PACLITAXEL]	4.79 µg/mL (≈ 5.61 µM)	< 0.02 µg/mL	< 0.02 µg/mL	< 0.02 µg/mL	< 0.02 µg/mL	155%	132%	150%												
CC(=O)O[C@H]1C(=O)[C@@]2(C)[C@H]([C@H](OC(=O)c3ccccc3)[C@]3(O)C[C@H](OC(=O)[C@H](OC(=O)CCS(=O)(=O)[O-])[C@@H](NC(=O)c4ccccc4)c4ccccc4)C(C)=C1C3(C)C)[C@]1(OC(C)=O)CO[C@@H]1C[C@@H]2O.[Na+]	0.4 µg/mL	0.19 µg/mL	0.02 µg/mL	< 0.02 µg/mL	0.05 µg/mL											136%	136%	127%	123%	109%
